From patent publication US10450327B2, “Epidithiodioxopiperazine compound or its derivatives, and the use thereof” (priority 2011, dated 2019)

Tests used:
[1] = tested on: SK-MEL-28 (SK28) melanoma cells; experiment: Intracellular hydrogen peroxide, SK28 melanoma cells; type: cell-based, human; conditions: PrxII-deficient SK28 cells, nontoxic level of GT
Procedure: The intracellular H2O2 level was measured using 5,6-chloromethyl-2′,7′-dichlorodihydrofluorescein diacetate (CM-DCFH-DA, Invitrogen), an oxidation-sensitive fluorescent dye. Human epidermal melanocyte, SK-MEL-5, SK-MEL-28, A375 and G361 cells (3×10^5) were grown in a 35 mm culure dish and infected with retroviruses for 24 hours. After that, the cells were serum-starved for 18 hours, and stimulated with 20% FBS for 10 minutes in a phenol red-free medium. After stimulated as described above, the cells were quickly rinsed with a Krebs-Ringer solution, and incubated with 5 μM CM-DCFH-DA for 5 minutes. 2′,7′-dichlorodihydrofluorescein (DCF) fluorescence was collected for 10 seconds using an inverted Axiovert 200 fluorescence microscope (Zeiss). The relative DCF fluorescence was calculated by averaging the fluorescence intensities of 60 to 80 cells after subtracting the background fluorescence from each image using an ImageQuant™ software (GE Healthcare). The desorbed sphenoid cells were excluded from quantification.
(§1) This proves the peroxidase activity of GT. Again, while GT treatment in the SK28 cells reduced Src/ERK activation and β-catenin phosphorylation, it increased the expression of E-cadherin (FIG. 53B). Furthermore, GT reduced the proliferation and the migration responding to serum stimulation in both SK5 and SK28 cells (FIGS. 53C and D).

[2] = tested on: Src/ERK, β-catenin, E-cadherin; experiment: Serum-induced signaling and E-cadherin expression, SK28 cells; type: cell-based, human
Procedure: (§2) The cells were rinsed with an ice-cold phosphate buffered saline (PBS) solution and then lysed in an extraction buffer solution containing 20 mM Hepes (pH 7.0), 1% Triton X-100, 150 mM NaCl, 10% glycerol, 1 mM EDTA, 2 mM EGTA, 1 mM DTT, 5 mM Na3VO4, 5 mM NaF, 1 mM AEBSF, aprotinin (5 μg/ml), and leupeptin (5 μg/ml). After being centrifuged at 12,000×g, the purified cell extracts were used for immunoblotting. In order to adjust the loading, the membranes were stripped by shaking them for 30 minutes at 60° C. in 67 mM Tris (pH 6.7), 2% SDS, and 100 mM 2-mercaptoethanol solution, and reprobed with an appropriate pan antibody.
as §1

[3] = tested on: PrxII knocked down HASMCs; experiment: Intracellular hydrogen peroxide (DCF fluorescence), PrxII knocked down HASMCs; type: cell-based, human; conditions: concentration-dependent
Procedure: First, the ability of GT to eliminate intracellular hydrogen peroxide in PrxII knocked down HASMCs and HAECs was tested. The cellular hydrogen peroxide production was monitored using an oxidant-sensitive fluorescence dye (2′,7′-dihydro-chlorofluorescein diacetate, H2DCF-DA).

[4] = tested on: left carotid artery of a PrxII−/− mouse; experiment: Wire-injured carotid artery of PrxII−/− mouse; type: in vivo; conditions: filter paper strip soaked in GT solution, 30 minutes; 10th day after injury
Procedure: In addition, in order to identify the effects of GT on vascular thickening in a PrxII−/− mouse, left carotid artery of a PrxII−/− mouse was damaged using a flexible wire. After the injury, a Whatman No. 1 filter paper strip was soaked in a control vehicle or a GT solution, and the paper was attached to the surface of vascular epithelia for 30 minutes for the solution to permeate into the tissue. The mouse was recovered at the 10th day after the injury. As a result, the ratio of intima versus media measured from the HE-stained carotid artery sample was presented as mean+− standard error (n=8 per group, *p<0.01).

[5] = tested on: PDGFRβ, PLCγ1, VEGFR2 and ERK; experiment: PDGF and VEGF signaling in vascular cells from PrxII−/− mouse; type: cell-based; conditions: cells separated from PrxII−/− mouse, PDGF-BB or VEGF-A 10 minutes
Procedure: Aortic vascular smooth muscle (A) and endothelial cells (B) were separated from a normal mouse and a PrxII−/− mouse, and cultured, and then treated with PDGF-BB and VEGF-A for 10 minutes each after either treating with GT or no treating. The activation of PDGFRβ, PLCγ1, VEGFR2 and ERK was analyzed using a phosphorylation-specific binding antibody for each protein.

VEGFR2 and ERK = experiment: VEGF-induced signaling, immunoblot, PrxII knocked down HAECs; type: cell-based, human; conditions: 2 hours pretreatment, VEGF 10 minutes
Procedure: as §2
In addition, the regulatory effects of GT on the PDGFRβ- and VEGFR2-mediated signaling pathway were examined. The GT treatment in HASMCs was quite different from PDGF-induced tyrosine phosphorylation that was enhanced by the PrxII knockdown (FIG. 12a). […] Conversely, the GT treatment in HAECs restored the VEGF-dependent activation of VEGFR2 and ERK that had been diminished by the PrxII knockdown (FIG. 12b). The effects of GT in vascular cell fuction were further validated.
Lastly, the effects of GT, a representative ETP compound, on vascular cells were compared with the effects of other compounds known as anti-oxidant compounds such as N-acetylcysteine or butylated hydroxyanisole, and the results are shown in FIG. 33. Immunoblotting was performed by pretreating HAECs in which PrxII was knocked down by injecting siRNA with each compound at the concentrations indicated in the graphs for two hours, and then treating with VEGF for 10 minutes. […] These comparative experiments led the inventors of the present invention to conclude that the distinguished […] function of the ETP compounds is clearly due to the PrxII-analogous activity, and additionally to the special chemical property of the dithioketopiperazine ring.

HASMCs = type: cell-based, human; conditions: up to 100 nM (200 nM for A4, A7, A9)
SK-MEL-28 (SK28) cells = experiment: Melanoma proliferation and migration assay, SK28; type: cell-based, human; conditions: 100 nM, 1 hour pretreatment
Procedure: The extent of cell proliferation was measured using a WST-1 cell proliferation assay kit (Roche Diagnostics, USA) according to the protocol of the manufacturer. The number of cells was expressed as an absorbance value at 450 nm averaged from 3 wells after subtracting the turbidity at 600 nm. The chemotactic transmigration assay was performed in a 24-well Transwell culture chamber (Costar; polycarbonate membrane insert with 8-μm pore size). The bottom of the insert was coated with gelatin B (1 mg/ml) and air-dried for 1 hour. Retroviruses or transfection complexes were treated to melanoma cells (6×10^3). After 24 hours, the infected or transfected melanoma cells were serum-starved for 18 hours. A 20% FBS solution was added to bottom chambers including a basal medium containing 0.5% BSA. The upper chamber wells were each filled with a basal medium including 0.5% BSA. The Transwell chamber was incubated for 12 hours in a 37° C./5% CO2 incubator. After the incubation, the non-migrating cells at the top of the filter were removed. The cells that migrated onto the bottom of filter were fixed and stained with 0.6% hematoxylin and 0.5% eosin. The stained cells were photographed and counted. The number of migrating cells was averaged from 3 wells. […]

SK-MEL-5 (SK5) cells = experiment: Melanoma proliferation and migration assay, SK5; type: cell-based, human; conditions: 100 nM, 1 hour pretreatment
Procedure: The extent of cell proliferation was measured using a WST-1 cell proliferation assay kit (Roche Diagnostics, USA) according to the protocol of the manufacturer. The number of cells was expressed as an absorbance value at 450 nm averaged from 3 wells after subtracting the turbidity at 600 nm. The chemotactic transmigration assay was performed in a 24-well Transwell culture chamber (Costar; polycarbonate membrane insert with 8-μm pore size). The bottom of the insert was coated with gelatin B (1 mg/ml) and air-dried for 1 hour. Retroviruses or transfection complexes were treated to melanoma cells (6×10^3). After 24 hours, the infected or transfected melanoma cells were serum-starved for 18 hours. A 20% FBS solution was added to bottom chambers including a basal medium containing 0.5% BSA. The upper chamber wells were each filled with a basal medium including 0.5% BSA. The Transwell chamber was incubated for 12 hours in a 37° C./5% CO2 incubator. After the incubation, the non-migrating cells at the top of the filter were removed. The cells that migrated onto the bottom of filter were fixed and stained with 0.6% hematoxylin and 0.5% eosin. The stained cells were photographed and counted. The number of migrating cells was averaged from 3 wells.

With `CN1C(=O)[C@]23CC4=CC=C[C@H](O)[C@H]4N2C(=O)[C@@]1(CO)SS3` [gliotoxin] the “level of intracellular hydrogen peroxide” value [1] was “reduced”, the “expression of E-cadherin” value [2] was “increased” and the “Src/ERK activation and β-catenin phosphorylation” value ([2]; serum stimulation) was “reduced”. For the same compound, the “level of intracellular hydrogen peroxide increased by PDGF and PrxII knockdown” value [3] was “completely canceled out”, the “vascular thickening (ratio of intima versus media)” value [4] was “markedly reduced” and the “effects on PDGF signaling in VSMC and VEGF signaling in VEC” value [5] was “opposed regulatory effects”. The “VEGF-dependent activation of VEGFR2 and ERK” value (VEGFR2 and ERK) was “restored”, the “proliferation and chemotactic transmigration of HASMCs in response to PDGF, enhanced by PrxII knockdown” value (HASMCs) was “gradually reduced” and the “proliferation and migration responding to serum stimulation, SK28” value (SK-MEL-28 (SK28) cells) was “reduced”. The “proliferation and migration responding to serum stimulation, SK5” value (SK-MEL-5 (SK5) cells) was “reduced”.
